Data on one molecule can be found in paper PMC3922537 (Organic & biomolecular chemistry, 2013).

This experiment has as its system CYP76AH4. Kind of experiment: in vitro hydroxylation assay of recombinant enzyme, GC-MS. Format: cell-based, Salvia rosmarinus. Particulars: C12-hydroxylation to ferruginol; enzyme preparation not described in main text.

For `CC(C)c1ccc2c(c1)CC[C@H]1C(C)(C)CCC[C@]21C` [compound 3, abietatriene], the Km worked out at 25 ± 6 µM.

The Km is the concentration of substrate that gives half-maximal velocity.
